What is called IC50 is the point on the concentration scale where inhibition reaches its midpoint.

These results are taken from patent US12391701B2, “Chromene-based compounds, methods and uses thereof” (University of Minho, priority 2019, dated 2025).

What all share (assay type): cell-based
In assay [1] the test system is renal carcinoma cell line 786-O. The experiment in a line: Cell viability (sulforhodamine B), 786-O. To be noted: Homo sapiens, 786-0; Table 5. The procedure:
(§1) In an embodiment, the antiproliferative activity of the compounds was further determined against renal carcinoma cell lines and non-neoplastic kidney cell line.
(§2) In an embodiment, three human breast cancer cell lines Hs578T, MDA-MB-468 and MCF-7, and a normal breast cell line MCF-10A, were obtained from ATCC (American Type Culture Collection). The cancer cell lines were cultured in Dulbecco's modified Eagle medium, 4.5 g/l glucose (DMEM, Gibco) supplemented with 10% heating inactivated Fetal Bovine Serum (FBS, Gibco) and 1% antibiotic solution (Penicillin-Streptomycin, Gibco). The normal cell line was cultured in Dulbecco's Modified Eagle Medium: Nutrient Mixture F-12 (DMEM/F12, Gibco) supplemented with 5% heating inactivated FBS (Gibco), 1% antibiotic solution (Penicillin-Streptomycin, Gibco), 1% steroid hormone (Hydrocortisone, Sigma-Aldrich), 0.1% peptide hormone (Insulin, Sigma-Aldrich) and 0.01% protein complex (Cholera Toxin, Gibco). Two distinct human acute myeloid leukemia (AML) cell lines, HL-60 (FAB M2) and KG-1 (erythroleukemia-FAB M6), and one human lymphoblastic leukemia (ALL) cell line, Jurkat (T cell type), were also used. These three cell lines were obtained from German Collection of Microorganisms and Cell cultures (DMSZ®, Deutsche Sammlung von Mikroorganismen and Zellkulturen in German). Cells were cultured in RPMI 1640 medium (Biochrom®-Merck Millipore) supplemented with 10% heating inactivated FBS (Biochrom®-Merck Millipore) and 1% antibiotic/antimitotic mixture (Invitrogen®). Three human glioblastoma (GBM) cell line models, two established and commercially available cell lines (U87MG and GAMG, kind gift from Rui M. Reis) and one primary GBM culture (GLIB) were also used. GBM cells were cultures in DMEM (Biochrom-Merck Millipore), all supplemented with 10% FBS. The Renal cell carcinoma cell lines A498, 786-O, Caki-2 and HK2 were obtained from ATCC. The cancer cell line A498 was cultured in MEM medium (Biochrom®-Merck Millipore), 786-O was cultured in RPMI 1640 medium (Biochrom®-Merck Millipore), Caki-2 was cultured in Mc Coys medium (Biochrom®-Merck Millipore) and HK2 was cultured in RPMI 1640 medium (Biochrom®-Merck Millipore). All the media were supplemented with 10% heat inactivated FBS (Biochrom®-Merck Millipore) and 1% antibiotic/antimitotic mixture (Invitrogen®). All cells were grown in a humidified incubator at 37° C. and 5% CO2. For all assays, DMSO (Dimethyl Sulfoxide, Sigma-Aldrich) controls were used.
(§3) In an embodiment, cell viability assays were performed. MCF-7, Hs578T and MCF-10A cells were plated in triplicate in 96-multiwell culture plates, at 3000 cells per mL, or 5000 cells per mL for MDA-MB-468 (100 μL/well). The cells were then allowed to adhere in complete medium, over a period of 18-20 hours. Cells were subsequently treated with 7 different concentrations (from 0.1 to 40 μM or 5 to 60 μM) of compounds or control in fresh medium. HL-60, KG-1 and Jurkat cell lines were plated in 96-multiwell culture plates at 50.000 cells/100 μL per well and treated with different concentrations (from 0.001 to 2 μM) of the compounds described (or control). Cells were plated, in triplicate, at an initial density of 2000 cells/well for GAMG, 4000 cells/well for GL18 and 6000 cells/well for U87MG, in 96-well plates, and allowed to adhere for 18-20 hours. Cells were then treated with different concentrations of the compounds (0.005 to 100 μM) or with control. A498 and 786-O cells were plated at 2000 cells per mL, Caki-2 cells were plated at 3000 cells per mL and HK2 cells were plated at 2000 cells per mL in triplicate, in 96-multiwell culture plates (100 μL/well), and allowed to adhere over a period of 18-20 hours in complete medium. The cells were then treated with 7 different concentrations (from 0.1 to 40 μM or 5 to 60 μM) of compounds or control in fresh medium. […]

Assay [2] concerns non-neoplastic cell line (HK2). The experiment in a line: Cell viability, HK2. To be noted: Table 5; read-out: IC50 HK2. As for the experimental part: as §1, §2, §3
The subject of assay [3] is breast cancer cell line MCF-7. The experiment in a line: Cell viability assay (MTS), MCF-7. To be noted: Homo sapiens, MCF7; 72 h incubation. As for the experimental part: (§4) In an embodiment, the cell growth inhibition and IC50 values of the synthesised and isolated chromene-based compounds were determined as part of the evaluation of the antiproliferative activity of the isolated agents. A complete study on the structure-activity relationship was performed for all the synthesised compounds. The antiproliferative activity against MCF-7 breast cancer cell lines were analysed. […] The non-neoplastic cell line MCF-10A was also used to determine the selectivity of the compounds for the tumour cells. For compounds with an IC50 value (concentration required to reduce cell viability by 50%) higher than 20 μM, the IC50 value was not determined. Selectivity index (SI) was calculated in order to evaluate the cytotoxicity of the tested compounds.
as §2
(§5) In an embodiment, cell viability assays were performed. MCF-7, Hs578T and MCF-10A cells were plated in triplicate in 96-multiwell culture plates, at 3000 cells […], or 5000 cells […] for MDA-MB-468 (100 μL/well). The cells were then allowed to adhere in complete medium, over a period of 18-20 hours. Cells were subsequently treated with 7 different concentrations (from 0.1 to 40 μM or 5 to 60 μM) of compounds or control in fresh medium. HL-60, KG-1 and Jurkat cell lines were plated in 96-multiwell culture plates at 50.000 cells/100 μL per well and treated with different concentrations (from 0.001 to 2 μM) of the compounds described (or control). Cells were plated, in triplicate, at an initial density of 2000 cells/well for GAMG, 4000 cells/well for GL18 and 6000 cells/well for U87MG, in 96-well plates, and allowed to adhere for 18-20 hours. […]

In assay [4] the test system is non-neoplastic cell line MCF-10A. Briefly: Cell viability assay (MTS), MCF-10A. To be noted: Homo sapiens, 72 h incubation. As for the experimental part: as §4, §2, §5
Assay [5] deals with TNBC cell line MDA-MB-231. Briefly: Cell viability assay, MDA-MB-231. To be noted: Homo sapiens.
In assay [6] the test system is renal carcinoma cell line A498. The experiment in a line: Cell viability (sulforhodamine B), A498. To be noted: Homo sapiens, Table 5. The procedure:
as §1, §2, §3

In assay [7] the test system is renal carcinoma cell lines. Briefly: First screen against renal carcinoma cell lines. To be noted: IC50 determination not pursued.
From the text: as §1

Assay [8] relates to TNBC cell line Hs578t. The experiment in a line: Cell viability assay (MTS), Hs578t. To be noted: Homo sapiens, Hs-578T; 72 h incubation.
From the text: In an embodiment, for a comparison study, monomers and respective dimers were selected and further evaluated in Hs578t and MDA-MB-468 breast cell lines. […] These cell lines correspond to the basal-like subtype of breast cancer, included in the known triple negative subtype, since they are negative for Estrogen receptor (ER), progesterone receptor (PR) and Human epidermal growth factor receptor 2 (HER2) molecular markers. The clinical behaviour of these breast cancer subtype is very aggressive and there is still no specific molecular therapy available.
as §2
In an embodiment, cell viability assays were performed. MCF-7, Hs578T and MCF-10A cells were plated in triplicate in 96-multiwell culture plates, at 3000 cells […], or 5000 cells […] for MDA-MB-468 (100 μL/well). The cells were then allowed to adhere in complete medium, over a period of 18-20 hours. Cells were subsequently treated with 7 different concentrations (from 0.1 to 40 μM or 5 to 60 μM) of compounds or control in fresh medium. HL-60, KG-1 and Jurkat cell lines were plated in 96-multiwell culture plates at 50.000 cells/100 μL per well and treated with different concentrations (from 0.001 to 2 μM) of the compounds described (or control). Cells were plated, in triplicate, at an initial density of 2000 cells/well for GAMG, 4000 cells/well for GL18 and 6000 cells/well for U87MG, in 96-well plates, and allowed to adhere for 18-20 hours. Cells were then treated with different concentrations of the compounds (0.005 to 100 μM) or with control. […]

Assay [9] concerns renal carcinoma cell line Caki-2. The experiment in a line: Cell viability (sulforhodamine B), Caki-2. To be noted: Homo sapiens, Table 5. The procedure: as §1, §2, §3

Each structure is given as a SMILES string.

Consider `Oc1ccccc1-c1nc2c([nH]1)Cc1ccccc1O2` [Compound M1159], for which the IC50 in assay [1] is 3040 nM; in [2], 5610 nM; in assay [3], 3680 nM; in [4], greater than 30000 nM; in [5], 10400 nM; in assay [6], 13600 nM.

For the compound `Oc1ccc(Cl)cc1-c1nc2c([nH]1)Cc1cc(Cl)ccc1O2` [Compound M1143], in assay [7], the “biological activity in a first screen” value is “did not demonstrate any biological activity”. Moreover, the IC50 in assay [3], in [8] and in [5] was greater than 30000 nM each time.

For the compound `COc1ccc2c(c1)Cc1[nH]c(-c3cc(OC)ccc3O)nc1O2` [Compound M1220], the “biological activity in a first screen” value in assay [7] was “did not demonstrate any biological activity”. In addition, the IC50 in [3] was 5850 nM; in assay [4] it was greater than 30000 nM; in assay [8], greater than 30000 nM.

Turning to `COc1cccc2c1Oc1nc(-c3cccc(F)c3)[nH]c1C2` [MC349, 2-(3-fluorophenyl)-5-methoxy-3,9-dihydrochromeno[2,3-d]imidazoles], the IC50 in assay [1] was 446 nM; in assay [2], 2630 nM; in assay [3], 770 nM; in assay [4], 2300 nM; in assay [8], 640 nM; in assay [9], 440 nM. Besides, the IC50 amounted to 1230 nM in assay [5] and 1120 nM in [6].

Take `COc1cccc(-c2nc3c([nH]2)Cc2cccc(OC)c2O3)c1O` [Compound M955]: the “biological activity in a first screen” value in [7] is “did not demonstrate any biological activity”. Moreover, the IC50 in [3] was 4150 nM; in assay [4], greater than 30000 nM; in assay [8], greater than 20000 nM; in [5] it was 15700 nM.

Turning to `COc1cccc2c1Oc1nc(-c3cccc(O)c3)[nH]c1C2` [MC359, 3-(5-methoxy-3,9-dihydrochromeno[2,3-d]imidazol-2-yl)phenol], the IC50 in assay [1] was determined as 3210 nM; in [2], 5290 nM; in [3], 2820 nM; in assay [4] it was 6660 nM; in assay [8], 3480 nM; in assay [9], 2340 nM. For the same compound, the IC50 amounted to 2700 nM in assay [5] and 2450 nM in assay [6].

Consider `Oc1ccc(Br)cc1-c1nc2c([nH]1)Cc1cc(Br)ccc1O2` [Compound M1221], for which, in assay [7], the “biological activity in a first screen” value was “did not demonstrate any biological activity”. The IC50 in assay [3] and in assay [5] was greater than 30000 nM throughout.

With `COc1cccc2c1Oc1nc(-c3ccc(Cl)cc3)[nH]c1C2` [MC412, 2-(4-chlorophenyl)-5-methoxy-3,9-dihydrochromeno[2,3-d]imidazoles], the IC50 in [1] is 32 nM; in [2] it was 1630 nM; in [3], 440 nM; in [4], 1740 nM; in [8], 980 nM; in assay [9], 39 nM. Moreover, the IC50 was found to be 1670 nM in [5] and 290 nM in assay [6].
